Measurements: ChEMBL document CHEMBL1148870, “Novel inhibitors of VEGF receptors-1 and -2 based on azole-5-carboxamide templates” (Bioorg Med Chem Lett, 2007)

Key:
Homo sapiens [1] = species: Homo sapiens; test: Inhibition of Cdk1 at 10 uM; parameters: scale not given: the % may be the effect or the level left
[2] = molecular target: Receptor tyrosine-protein kinase erbB-2 (Homo sapiens) (UniProt P04626); test: Inhibition of ErbB2/Her2 at 10 uM; parameters: scale not given: the % may be the effect or the level left
[3] = molecular target: Epidermal growth factor receptor (Homo sapiens) (UniProt P00533); test: Inhibition of ErbB1 at 10 uM; parameters: scale not given: the % may be the effect or the level left
Homo sapiens [4] = species: Homo sapiens; test: Inhibition of PKA at 10 uM; parameters: scale not given: the % may be the effect or the level left
[5] = molecular target: T1, Vascular endothelial growth factor receptor 2 (Homo sapiens, UniProt P35968); test: Inhibition of VEGFR2 assessed as inhibition of phosphorylation in presence of 2 uM ATP by HTRF assay; assay type: functional
[6] = molecular target: Insulin-like growth factor 1 receptor (Homo sapiens) (UniProt P08069); test: Inhibition of IGF1R at 10 uM; parameters: scale not given: the % may be the effect or the level left
[7] = molecular target: Glycogen synthase kinase-3 beta (Homo sapiens) (UniProt P49841); test: Inhibition of GSK3-beta at 10 uM; parameters: scale not given: the % may be the effect or the level left
[8] = molecular target: Cyclin-dependent kinase 2 (Homo sapiens) (UniProt P24941); test: Inhibition of Cdk2 at 10 uM; parameters: scale not given: the % may be the effect or the level left
[9] = molecular target: RAF proto-oncogene serine/threonine-protein kinase (Homo sapiens) (UniProt P04049); test: Inhibition of Raf1 at 10 uM; parameters: scale not given: the % may be the effect or the level left
[10] = molecular target: Fibroblast growth factor receptor 1 (Homo sapiens) (UniProt P11362); test: Inhibition of FGFR1 at 10 uM; parameters: scale not given: the % may be the effect or the level left
Homo sapiens [11] = species: Homo sapiens; test: Inhibition of bcr-Abl at 10 uM; parameters: scale not given: the % may be the effect or the level left
[12] = molecular target: RAC-alpha serine/threonine-protein kinase (Homo sapiens) (UniProt P31749); test: Inhibition of PKB/Akt at 10 uM; parameters: scale not given: the % may be the effect or the level left
[13] = molecular target: Vascular endothelial growth factor receptor 1 (Homo sapiens, UniProt P17948); test: Inhibition of VEGFR1 assessed as inhibition of phosphorylation in presence of 2 uM ATP by HTRF assay; assay type: functional
[14] = molecular target: Vascular endothelial growth factor receptor 3 (Homo sapiens) (UniProt P35916); test: Inhibition of Flt4 at 10 uM; parameters: scale not given: the % may be the effect or the level left
[15] = molecular target: Hepatocyte growth factor receptor (Homo sapiens) (UniProt P08581); test: Inhibition of cMet at 10 uM; parameters: scale not given: the % may be the effect or the level left
Homo sapiens [16] = species: Homo sapiens; test: Inhibition of InR at 10 uM; parameters: scale not given: the % may be the effect or the level left
[17] = molecular target: Receptor-type tyrosine-protein kinase FLT3 (Homo sapiens) (UniProt P36888); test: Inhibition of Flt3 at 10 uM; parameters: scale not given: the % may be the effect or the level left
[18] = molecular target: T1, Vascular endothelial growth factor receptor 2; test: Inhibition of VEGFR2 assessed as inhibition of phosphorylation in human 293 cells by cell-based ELISA; assay type: functional, HEK293

Hepatocyte growth factor receptor (Homo sapiens), sequence (P08581 whole entry): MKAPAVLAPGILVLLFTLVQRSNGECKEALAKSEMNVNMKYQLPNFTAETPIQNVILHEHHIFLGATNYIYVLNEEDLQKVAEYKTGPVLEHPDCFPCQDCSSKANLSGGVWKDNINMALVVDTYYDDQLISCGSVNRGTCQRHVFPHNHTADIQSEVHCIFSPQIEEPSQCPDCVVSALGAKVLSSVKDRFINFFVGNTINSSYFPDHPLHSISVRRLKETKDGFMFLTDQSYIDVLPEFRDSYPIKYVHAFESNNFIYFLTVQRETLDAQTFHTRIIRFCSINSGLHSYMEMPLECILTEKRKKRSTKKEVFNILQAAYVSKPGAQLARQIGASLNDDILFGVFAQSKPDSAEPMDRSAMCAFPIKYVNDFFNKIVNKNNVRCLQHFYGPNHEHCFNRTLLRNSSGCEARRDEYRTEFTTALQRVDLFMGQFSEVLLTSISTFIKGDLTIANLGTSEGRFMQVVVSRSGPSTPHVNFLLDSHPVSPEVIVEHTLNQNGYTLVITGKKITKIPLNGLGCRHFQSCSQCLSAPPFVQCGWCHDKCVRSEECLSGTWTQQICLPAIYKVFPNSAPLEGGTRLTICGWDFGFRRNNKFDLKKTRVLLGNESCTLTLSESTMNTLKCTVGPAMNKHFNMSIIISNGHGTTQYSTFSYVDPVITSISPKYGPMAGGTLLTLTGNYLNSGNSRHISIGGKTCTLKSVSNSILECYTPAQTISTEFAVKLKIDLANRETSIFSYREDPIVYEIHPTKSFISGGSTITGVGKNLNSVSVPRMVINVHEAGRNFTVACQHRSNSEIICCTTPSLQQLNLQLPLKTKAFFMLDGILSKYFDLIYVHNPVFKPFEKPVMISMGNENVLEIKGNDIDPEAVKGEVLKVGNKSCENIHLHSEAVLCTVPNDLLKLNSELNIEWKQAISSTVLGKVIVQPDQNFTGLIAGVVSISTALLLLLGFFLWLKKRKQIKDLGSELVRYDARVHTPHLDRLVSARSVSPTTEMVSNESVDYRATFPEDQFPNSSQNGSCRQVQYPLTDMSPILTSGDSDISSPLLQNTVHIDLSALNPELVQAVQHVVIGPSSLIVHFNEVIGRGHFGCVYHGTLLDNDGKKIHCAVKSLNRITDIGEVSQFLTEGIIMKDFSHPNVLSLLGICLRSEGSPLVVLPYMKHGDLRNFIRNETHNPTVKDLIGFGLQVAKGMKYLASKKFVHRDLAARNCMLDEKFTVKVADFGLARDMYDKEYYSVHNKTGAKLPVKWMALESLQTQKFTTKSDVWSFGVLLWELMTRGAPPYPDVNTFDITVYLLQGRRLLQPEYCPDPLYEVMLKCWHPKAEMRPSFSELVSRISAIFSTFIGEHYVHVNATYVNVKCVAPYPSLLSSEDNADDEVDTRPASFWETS
Glycogen synthase kinase-3 beta (Homo sapiens), sequence (P49841 whole entry, looked up): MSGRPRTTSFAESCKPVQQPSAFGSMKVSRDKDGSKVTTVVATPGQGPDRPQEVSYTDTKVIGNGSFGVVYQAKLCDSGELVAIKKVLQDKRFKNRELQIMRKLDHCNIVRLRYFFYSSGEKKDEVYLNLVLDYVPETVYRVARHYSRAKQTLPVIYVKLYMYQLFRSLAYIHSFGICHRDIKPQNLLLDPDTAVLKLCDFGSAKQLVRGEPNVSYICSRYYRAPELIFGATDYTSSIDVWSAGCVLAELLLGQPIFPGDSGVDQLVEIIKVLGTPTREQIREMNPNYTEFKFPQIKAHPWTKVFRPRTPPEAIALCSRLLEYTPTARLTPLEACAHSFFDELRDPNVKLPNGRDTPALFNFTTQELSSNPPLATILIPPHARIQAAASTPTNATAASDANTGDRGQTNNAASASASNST
Receptor-type tyrosine-protein kinase FLT3 (Homo sapiens), sequence (P36888 whole entry): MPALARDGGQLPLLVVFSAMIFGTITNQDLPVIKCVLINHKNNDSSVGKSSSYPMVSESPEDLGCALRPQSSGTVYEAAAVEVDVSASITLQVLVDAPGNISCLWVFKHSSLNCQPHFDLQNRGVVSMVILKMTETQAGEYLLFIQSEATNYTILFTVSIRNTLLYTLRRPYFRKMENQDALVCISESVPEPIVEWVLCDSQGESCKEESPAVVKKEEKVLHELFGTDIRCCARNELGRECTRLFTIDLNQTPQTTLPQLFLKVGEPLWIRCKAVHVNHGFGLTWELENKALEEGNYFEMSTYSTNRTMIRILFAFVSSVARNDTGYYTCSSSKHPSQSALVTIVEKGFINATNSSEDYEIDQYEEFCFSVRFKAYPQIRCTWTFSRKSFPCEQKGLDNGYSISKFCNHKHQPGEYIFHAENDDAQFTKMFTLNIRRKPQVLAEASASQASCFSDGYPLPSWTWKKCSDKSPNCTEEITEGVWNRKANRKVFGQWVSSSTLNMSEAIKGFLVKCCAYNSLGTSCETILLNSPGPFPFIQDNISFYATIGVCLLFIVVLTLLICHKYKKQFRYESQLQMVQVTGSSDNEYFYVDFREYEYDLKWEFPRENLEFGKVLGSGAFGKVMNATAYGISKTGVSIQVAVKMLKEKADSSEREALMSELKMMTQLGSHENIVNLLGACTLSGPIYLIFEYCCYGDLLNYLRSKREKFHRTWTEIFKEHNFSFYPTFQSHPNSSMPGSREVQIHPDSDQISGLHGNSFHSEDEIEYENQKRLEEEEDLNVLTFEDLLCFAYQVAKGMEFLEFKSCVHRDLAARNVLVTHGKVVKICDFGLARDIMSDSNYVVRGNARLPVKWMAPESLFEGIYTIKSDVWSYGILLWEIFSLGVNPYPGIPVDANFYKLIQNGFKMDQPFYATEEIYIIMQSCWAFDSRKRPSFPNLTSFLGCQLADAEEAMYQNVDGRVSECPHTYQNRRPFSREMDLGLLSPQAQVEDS
Receptor tyrosine-protein kinase erbB-2 (Homo sapiens), sequence (P04626 whole entry): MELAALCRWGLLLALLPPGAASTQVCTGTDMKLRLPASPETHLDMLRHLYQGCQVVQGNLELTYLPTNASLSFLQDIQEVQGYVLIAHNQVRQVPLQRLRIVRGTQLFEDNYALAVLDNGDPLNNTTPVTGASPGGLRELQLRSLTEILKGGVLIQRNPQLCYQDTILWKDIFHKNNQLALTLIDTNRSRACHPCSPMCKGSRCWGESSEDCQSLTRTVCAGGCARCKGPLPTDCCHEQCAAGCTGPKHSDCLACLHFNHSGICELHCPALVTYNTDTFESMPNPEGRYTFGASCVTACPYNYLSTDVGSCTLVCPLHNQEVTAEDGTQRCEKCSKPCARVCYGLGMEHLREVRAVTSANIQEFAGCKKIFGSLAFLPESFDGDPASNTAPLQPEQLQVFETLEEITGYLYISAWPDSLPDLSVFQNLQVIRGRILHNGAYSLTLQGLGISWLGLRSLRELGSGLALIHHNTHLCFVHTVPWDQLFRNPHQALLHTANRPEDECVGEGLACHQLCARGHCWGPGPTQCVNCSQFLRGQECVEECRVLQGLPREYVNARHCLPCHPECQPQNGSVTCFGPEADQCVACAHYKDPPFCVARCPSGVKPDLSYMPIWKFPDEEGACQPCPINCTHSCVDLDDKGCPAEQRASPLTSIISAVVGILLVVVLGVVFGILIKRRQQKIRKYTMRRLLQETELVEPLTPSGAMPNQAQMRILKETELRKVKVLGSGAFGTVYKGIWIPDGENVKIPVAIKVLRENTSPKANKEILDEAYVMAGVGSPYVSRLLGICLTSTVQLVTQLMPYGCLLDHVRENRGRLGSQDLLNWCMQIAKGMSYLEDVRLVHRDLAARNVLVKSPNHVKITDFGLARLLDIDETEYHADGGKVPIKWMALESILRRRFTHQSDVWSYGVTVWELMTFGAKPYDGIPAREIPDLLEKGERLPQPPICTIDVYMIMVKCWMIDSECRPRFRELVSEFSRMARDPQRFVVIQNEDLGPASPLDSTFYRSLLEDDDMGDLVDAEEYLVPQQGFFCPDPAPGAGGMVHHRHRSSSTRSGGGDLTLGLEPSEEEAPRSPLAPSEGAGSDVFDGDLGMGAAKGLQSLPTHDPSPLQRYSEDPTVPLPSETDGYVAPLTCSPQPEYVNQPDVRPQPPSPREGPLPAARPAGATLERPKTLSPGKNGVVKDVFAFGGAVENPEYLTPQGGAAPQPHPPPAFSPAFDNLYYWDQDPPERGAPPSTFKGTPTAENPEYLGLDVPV
RAC-alpha serine/threonine-protein kinase (Homo sapiens), sequence (P31749 whole entry): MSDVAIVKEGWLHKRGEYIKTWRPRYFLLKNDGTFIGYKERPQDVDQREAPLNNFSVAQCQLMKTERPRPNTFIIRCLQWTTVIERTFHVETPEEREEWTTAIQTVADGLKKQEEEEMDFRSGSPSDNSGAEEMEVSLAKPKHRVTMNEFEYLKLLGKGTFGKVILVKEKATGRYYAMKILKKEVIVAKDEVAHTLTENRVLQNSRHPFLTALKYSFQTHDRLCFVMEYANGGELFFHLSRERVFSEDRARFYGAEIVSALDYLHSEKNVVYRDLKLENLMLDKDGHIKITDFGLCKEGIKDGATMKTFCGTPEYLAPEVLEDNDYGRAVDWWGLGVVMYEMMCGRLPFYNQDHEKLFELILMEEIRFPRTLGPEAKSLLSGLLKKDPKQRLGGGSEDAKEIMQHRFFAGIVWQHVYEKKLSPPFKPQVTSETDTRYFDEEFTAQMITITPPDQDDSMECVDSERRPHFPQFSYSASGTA

| Compound | Activity (Homo sapiens [1]) | Activity [2] | Activity [3] | Activity (Homo sapiens [4]) | IC50 [5] | Activity [6] | Activity [7] | Activity [8] | Activity [9] | Activity [10] | Activity (Homo sapiens [11]) | Activity [12] | IC50 [13] | Activity [14] | Activity [15] | Activity (Homo sapiens [16]) | Activity [17] | IC50 [18] |
| --- | --- | --- | --- | --- | --- | --- | --- | --- | --- | --- | --- | --- | --- | --- | --- | --- | --- | --- |
| Cc1cc(C(=O)Nc2ccc(OC(F)(F)F)cc2)n(CCc2ccncc2)n1 | > 30% | > 30% | < 30% | > 30% | 1.19 µM | > 30% | > 30% | > 30% | > 30% | > 30% | > 30% | > 30% | 2.25 µM | > 30% | > 30% | > 30% | > 30% | 1.34 µM |
| CC(C)(C)c1ccc(NC(=O)c2nccn2CCc2ccncc2)cc1 | > 30% | > 30% | < 30% | > 30% | 0.94 µM | > 30% | > 30% | > 30% | > 30% | > 30% | > 30% | > 30% | 3.86 µM | > 30% | > 30% | > 30% | > 30% | 2.25 µM |
| O=C(Nc1ccc(-c2ccccc2)cc1)c1ccnn1CCc1ccncc1 | > 30% | > 30% | < 30% | > 30% | 0.95 µM | > 30% | > 30% | > 30% | > 30% | > 30% | > 30% | > 30% | 2.25 µM | > 30% | > 30% | > 30% | > 30% | 1.56 µM |
| O=C(Nc1ccc(Cl)c(C(F)(F)F)c1)c1ccnn1CCc1ccncc1 | > 30% | > 30% | < 30% | > 30% | 0.75 µM | > 30% | > 30% | > 30% | > 30% | > 30% | > 30% | > 30% | 2.33 µM | > 30% | > 30% | > 30% | > 30% | 0.45 µM |
| CC(C)(C)c1ccc(NC(=O)c2nnnn2CCc2ccncc2)cc1 | > 30% | > 30% | < 30% | > 30% | > 10 µM | > 30% | > 30% | > 30% | > 30% | > 30% | > 30% | > 30% | > 10 µM | > 30% | > 30% | > 30% | > 30% | > 10 µM |
| O=C(Nc1cnc2ccccc2c1)c1ccnn1CCc1ccncc1 | > 30% | > 30% | < 30% | > 30% | 0.18 µM | > 30% | > 30% | > 30% | > 30% | > 30% | > 30% | > 30% | 0.38 µM | > 30% | > 30% | > 30% | > 30% | 1.22 µM |
| O=C(Nc1ccc(Cl)cc1)c1ccnn1CCc1c[nH]cn1 | > 30% | > 30% | < 30% | > 30% | > 10 µM | > 30% | > 30% | > 30% | > 30% | > 30% | > 30% | > 30% | > 10 µM | > 30% | > 30% | > 30% | > 30% | > 10 µM |
| O=C(Nc1ccc(Cl)cc1)c1ccnn1CCc1ccccn1 | > 30% | > 30% | < 30% | > 30% | > 10 µM | > 30% | > 30% | > 30% | > 30% | > 30% | > 30% | > 30% | > 10 µM | > 30% | > 30% | > 30% | > 30% | > 10 µM |
| O=C(Nc1ccc(OC(F)(F)F)cc1)c1nc2ccccc2n1CCc1ccncc1 | > 30% | > 30% | < 30% | > 30% | > 10 µM | > 30% | > 30% | > 30% | > 30% | > 30% | > 30% | > 30% | > 10 µM | > 30% | > 30% | > 30% | > 30% | > 10 µM |
| O=C(Nc1ccc(Cl)c(Cl)c1)c1ccnn1CCc1ccncc1 | > 30% | > 30% | < 30% | > 30% | 0.26 µM | > 30% | > 30% | > 30% | > 30% | > 30% | > 30% | > 30% | 0.86 µM | > 30% | > 30% | > 30% | > 30% | 0.12 µM |
| O=C(Nc1ccc(Oc2ccccc2)cc1)c1ccnn1CCc1ccncc1 | > 30% | > 30% | < 30% | > 30% | 3.22 µM | > 30% | > 30% | > 30% | > 30% | > 30% | > 30% | > 30% | 5.25 µM | > 30% | > 30% | > 30% | > 30% | > 10 µM |
| Cc1cc(C(=O)Nc2ccc(Cl)cc2)n(CCc2ccncc2)n1 | > 30% | > 30% | < 30% | > 30% | 0.78 µM | > 30% | > 30% | > 30% | > 30% | > 30% | > 30% | > 30% | 1.22 µM | > 30% | > 30% | > 30% | > 30% | 2.54 µM |
| O=C(Nc1ccc(Cl)cc1)c1ccnn1CCc1noc2ccccc12 | > 30% | > 30% | < 30% | > 30% | > 10 µM | > 30% | > 30% | > 30% | > 30% | > 30% | > 30% | > 30% | > 10 µM | > 30% | > 30% | > 30% | > 30% | > 10 µM |
| O=C(Nc1ccc(OCc2ccccc2)cc1)c1ccnn1CCc1ccncc1 | > 30% | > 30% | < 30% | > 30% | > 10 µM | > 30% | > 30% | > 30% | > 30% | > 30% | > 30% | > 30% | > 10 µM | > 30% | > 30% | > 30% | > 30% | > 10 µM |
| O=C(Nc1ccc(OC(F)(F)F)cc1)c1nccn1CCc1ccncc1 | > 30% | > 30% | < 30% | > 30% | 0.79 µM | > 30% | > 30% | > 30% | > 30% | > 30% | > 30% | > 30% | 4.27 µM | > 30% | > 30% | > 30% | > 30% | 1.05 µM |
| O=C(Nc1ccc(C(F)(F)F)c(Cl)c1)c1nc2ccccc2n1CCc1ccncc1 | > 30% | > 30% | < 30% | > 30% | > 10 µM | > 30% | > 30% | > 30% | > 30% | > 30% | > 30% | > 30% | > 10 µM | > 30% | > 30% | > 30% | > 30% | > 10 µM |
| O=C(Nc1ccc2cn[nH]c2c1)c1ccnn1CCc1ccncc1 | > 30% | > 30% | < 30% | > 30% | > 10 µM | > 30% | > 30% | > 30% | > 30% | > 30% | > 30% | > 30% | > 10 µM | > 30% | > 30% | > 30% | > 30% | > 10 µM |
